Here are results for seven compounds from PMC3401419 (Journal of the American Chemical Society, 2012).

For assay [1], the target named is T1, Recombinant human somatic ACE (sACE-1) (Homo sapiens, UniProt P12821). The following applies: pH 7.4.
Assay [2] deals with T1, Recombinant human somatic ACE (sACE-1). The experiment in a line: Time-dependent inactivation of sACE-1 with coreactants. The following applies: pH 7.4, 37 °C, same concentration as corresponding lisinopril complex.
For assay [3] the target is unchanged. The experiment in a line: biochemical.
Assay [4] has the same target. The experiment in a line: Concentration-dependent inhibition of sACE-1. The following applies: inhibitor and substrate concentration varied, Dixon plots.

What is called IC50 is the concentration needed to halve the response being measured.

Like-named read-outs stand apart in the source and are kept apart here. Where a SMILES comes first, the peptide text is derived from it. A value given as a limit tells only on which side of the number the result lay.

T1 sequence (P12821 30-1261): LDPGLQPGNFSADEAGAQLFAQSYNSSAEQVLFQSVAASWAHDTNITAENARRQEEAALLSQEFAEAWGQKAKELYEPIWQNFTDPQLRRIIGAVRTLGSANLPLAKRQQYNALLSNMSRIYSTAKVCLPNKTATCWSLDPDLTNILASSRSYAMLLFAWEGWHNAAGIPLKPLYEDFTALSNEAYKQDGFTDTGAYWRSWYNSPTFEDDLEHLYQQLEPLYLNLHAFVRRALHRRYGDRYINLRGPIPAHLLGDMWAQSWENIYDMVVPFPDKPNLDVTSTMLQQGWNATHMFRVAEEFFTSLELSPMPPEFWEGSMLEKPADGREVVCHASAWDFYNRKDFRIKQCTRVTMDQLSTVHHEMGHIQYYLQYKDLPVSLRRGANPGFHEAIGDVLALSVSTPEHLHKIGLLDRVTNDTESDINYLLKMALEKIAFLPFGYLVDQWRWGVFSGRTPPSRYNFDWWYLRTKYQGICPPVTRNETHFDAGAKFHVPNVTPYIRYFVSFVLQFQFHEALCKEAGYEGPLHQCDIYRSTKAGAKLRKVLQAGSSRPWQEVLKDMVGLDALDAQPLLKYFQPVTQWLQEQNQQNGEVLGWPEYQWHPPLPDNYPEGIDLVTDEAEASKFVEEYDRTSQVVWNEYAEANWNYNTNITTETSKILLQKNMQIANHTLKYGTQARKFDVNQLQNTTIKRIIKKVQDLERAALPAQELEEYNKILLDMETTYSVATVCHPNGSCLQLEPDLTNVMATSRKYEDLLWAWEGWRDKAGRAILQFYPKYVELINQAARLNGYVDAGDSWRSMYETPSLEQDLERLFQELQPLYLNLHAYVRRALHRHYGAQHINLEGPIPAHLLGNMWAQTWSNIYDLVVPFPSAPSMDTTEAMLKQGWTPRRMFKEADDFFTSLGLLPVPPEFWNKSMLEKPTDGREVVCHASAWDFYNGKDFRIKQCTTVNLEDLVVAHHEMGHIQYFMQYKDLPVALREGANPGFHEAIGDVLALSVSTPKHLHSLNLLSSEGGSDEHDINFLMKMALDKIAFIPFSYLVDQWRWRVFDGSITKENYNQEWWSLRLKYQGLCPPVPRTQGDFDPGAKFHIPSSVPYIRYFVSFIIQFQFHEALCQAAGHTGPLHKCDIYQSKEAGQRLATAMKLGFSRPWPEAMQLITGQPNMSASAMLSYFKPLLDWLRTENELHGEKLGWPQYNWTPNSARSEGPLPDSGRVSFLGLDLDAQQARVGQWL

Turning to `O=C([O-])CN(CCN(CC(=O)[O-])CC(=O)[O-])CC(=O)[O-].[Cu+2]` [Cu-EDTA], the IC50 in assay [1] was 26 µM. The “k2 for inactivation of sACE-1, M-chelate without lisinopril (control)” value in assay [2] (Ascorbate) is listed as 2,000 ± 3,000 {-- ^d} M^−1min^−1; in assay [2] (H2O2), < 3,000 {-- ^d} M^−1min^−1. Regarding `O=C([O-])CN(CC(=O)[O-])CC(=O)O.[Cu+2]` [Cu-NTA], the IC50 in assay [1] turned out to be 36 µM. Consider `O=C(O)CN1CCN(CC(=O)O)CCN(CC(=O)O)CCN(CC(=O)O)CC1` [DOTA, 1,4,7,10-tetraazacyclododecane-1,4,7,10-tetraacetic acid], for which, in assay [3], the IC50 came out at 7 µM.

On to `O=C(O)CN(CCN(CC(=O)O)CC(=O)O)CC(=O)O` [EDTA, Ethylenediamine-tetraacetic acid], for which the IC50 in assay [3] is 7.2 µM.

Regarding `NCC(=O)NCC(=O)N[C@@H](Cc1cnc[nH]1)C(=O)O` [GGH] (H-Gly-Gly-His-OH), the IC50 in assay [1] was > 100 µM. As for `O=C(O)CN(CC(=O)O)CC(=O)O` [NTA, Nitrilotriacetic acid], the IC50 in assay [3] stood at 32 µM. In the case of `NCCCC[C@H](N[C@@H](CCc1ccccc1)C(=O)O)C(=O)N1CCC[C@H]1C(=O)O` [lisinopril], the “mode of inhibition of sACE-1” value in assay [4] is “competitive”.
